Reference: ChEMBL document CHEMBL4507259 (2021)

Columns and labels:
[1] = target: Receptor tyrosine-protein kinase erbB-3 (Homo sapiens) (UniProt P21860); details: Compound concentration 1000.0 nM
[2] = target: Serine/threonine-protein kinase 3 (Homo sapiens) (UniProt Q13188); details: Compound concentration 1000.0 nM
[3] = target: Myosin light chain kinase family member 4 (Homo sapiens) (UniProt Q86YV6); details: Compound concentration 1000.0 nM
[4] = target: Kappa-type opioid receptor (Homo sapiens) (UniProt P41145); assay: kappa (KOP) CEREP ligand profiling; details: filed as agonist; Compound concentration 10.0 uM
Kappa-type opioid receptor (Homo sapiens), sequence (P41145 whole entry): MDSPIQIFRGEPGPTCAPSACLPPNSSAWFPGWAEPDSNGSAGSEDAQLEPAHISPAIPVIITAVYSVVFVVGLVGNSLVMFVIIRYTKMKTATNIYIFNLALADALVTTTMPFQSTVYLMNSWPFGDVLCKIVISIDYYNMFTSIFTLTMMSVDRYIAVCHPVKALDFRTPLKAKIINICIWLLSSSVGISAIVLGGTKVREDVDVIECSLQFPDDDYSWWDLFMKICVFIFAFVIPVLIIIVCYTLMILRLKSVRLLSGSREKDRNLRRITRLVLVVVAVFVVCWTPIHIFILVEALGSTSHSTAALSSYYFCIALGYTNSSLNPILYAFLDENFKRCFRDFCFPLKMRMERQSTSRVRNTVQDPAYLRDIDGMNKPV

[5] = target: Serine/threonine-protein kinase Nek3 (Homo sapiens) (UniProt P51956); details: Compound concentration 1000.0 nM
Serine/threonine-protein kinase Nek3 (Homo sapiens), sequence (P51956 whole entry): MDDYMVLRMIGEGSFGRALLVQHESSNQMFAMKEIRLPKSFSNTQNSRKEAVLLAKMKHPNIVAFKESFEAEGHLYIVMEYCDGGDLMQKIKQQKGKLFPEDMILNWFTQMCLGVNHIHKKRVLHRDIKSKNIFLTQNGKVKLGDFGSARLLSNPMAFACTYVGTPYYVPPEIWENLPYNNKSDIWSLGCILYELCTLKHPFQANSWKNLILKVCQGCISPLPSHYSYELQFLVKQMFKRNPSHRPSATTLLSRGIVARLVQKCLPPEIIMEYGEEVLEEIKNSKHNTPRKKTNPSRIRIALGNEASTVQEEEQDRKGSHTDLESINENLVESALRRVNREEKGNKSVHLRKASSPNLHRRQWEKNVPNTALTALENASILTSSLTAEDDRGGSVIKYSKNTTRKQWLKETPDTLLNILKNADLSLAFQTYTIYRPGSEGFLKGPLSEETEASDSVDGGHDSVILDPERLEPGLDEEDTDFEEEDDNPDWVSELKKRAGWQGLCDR

[6] = target: T1, Muscarinic acetylcholine receptor M5 (Homo sapiens) (UniProt P08912); details: Compound concentration 10.0 uM
T1 sequence (whole entry): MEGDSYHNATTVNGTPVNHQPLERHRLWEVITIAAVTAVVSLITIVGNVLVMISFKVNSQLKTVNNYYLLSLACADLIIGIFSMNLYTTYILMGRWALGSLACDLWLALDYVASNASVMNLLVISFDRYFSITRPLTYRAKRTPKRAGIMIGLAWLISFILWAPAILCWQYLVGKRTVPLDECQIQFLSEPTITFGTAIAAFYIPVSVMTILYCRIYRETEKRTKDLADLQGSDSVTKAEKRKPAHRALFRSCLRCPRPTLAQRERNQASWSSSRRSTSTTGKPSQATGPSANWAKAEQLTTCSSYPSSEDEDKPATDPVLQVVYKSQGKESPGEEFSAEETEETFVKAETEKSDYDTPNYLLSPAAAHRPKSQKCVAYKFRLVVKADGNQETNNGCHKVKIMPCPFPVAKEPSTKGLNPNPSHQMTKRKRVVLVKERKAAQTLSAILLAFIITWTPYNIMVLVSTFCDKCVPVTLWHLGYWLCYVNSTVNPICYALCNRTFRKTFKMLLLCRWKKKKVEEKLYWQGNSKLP

[7] = target: Aurora kinase B (Homo sapiens) (UniProt Q96GD4); details: Compound concentration 1000.0 nM
[8] = tested on: Phosphatidylinositol 4,5-bisphosphate 3-kinase catalytic subunit alpha isoform (Homo sapiens), P42336 [H1047L]; details: Compound concentration 1000.0 nM
[9] = target: D(1A) dopamine receptor (Homo sapiens) (UniProt P21728); details: Compound concentration 10.0 uM
[10] = target: Ribosomal protein S6 kinase alpha-1 (Homo sapiens) (UniProt Q15418); details: Compound concentration 1000.0 nM
[11] = target: Serine/threonine-protein kinase BRSK2 (Homo sapiens) (UniProt Q8IWQ3); details: Compound concentration 1000.0 nM
[12] = target: Substance-K receptor (Homo sapiens) (UniProt P21452); assay: NK2 (h) CEREP ligand profiling; details: filed as agonist, Compound concentration 10.0 uM
Substance-K receptor (Homo sapiens), sequence (P21452 whole entry): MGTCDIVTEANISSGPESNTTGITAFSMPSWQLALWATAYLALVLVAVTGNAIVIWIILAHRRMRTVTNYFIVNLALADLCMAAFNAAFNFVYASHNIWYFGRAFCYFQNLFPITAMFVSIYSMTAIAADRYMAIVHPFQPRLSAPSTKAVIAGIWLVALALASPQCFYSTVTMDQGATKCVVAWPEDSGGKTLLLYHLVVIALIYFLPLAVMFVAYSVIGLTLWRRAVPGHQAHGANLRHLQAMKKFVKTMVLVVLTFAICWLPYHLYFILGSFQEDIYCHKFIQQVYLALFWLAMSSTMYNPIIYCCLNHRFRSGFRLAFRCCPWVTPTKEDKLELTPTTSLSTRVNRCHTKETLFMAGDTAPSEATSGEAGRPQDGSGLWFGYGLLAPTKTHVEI

[13] = target: T2, Alpha-1B adrenergic receptor (Homo sapiens) (UniProt P35368); details: Compound concentration 10.0 uM
T2 sequence (whole entry): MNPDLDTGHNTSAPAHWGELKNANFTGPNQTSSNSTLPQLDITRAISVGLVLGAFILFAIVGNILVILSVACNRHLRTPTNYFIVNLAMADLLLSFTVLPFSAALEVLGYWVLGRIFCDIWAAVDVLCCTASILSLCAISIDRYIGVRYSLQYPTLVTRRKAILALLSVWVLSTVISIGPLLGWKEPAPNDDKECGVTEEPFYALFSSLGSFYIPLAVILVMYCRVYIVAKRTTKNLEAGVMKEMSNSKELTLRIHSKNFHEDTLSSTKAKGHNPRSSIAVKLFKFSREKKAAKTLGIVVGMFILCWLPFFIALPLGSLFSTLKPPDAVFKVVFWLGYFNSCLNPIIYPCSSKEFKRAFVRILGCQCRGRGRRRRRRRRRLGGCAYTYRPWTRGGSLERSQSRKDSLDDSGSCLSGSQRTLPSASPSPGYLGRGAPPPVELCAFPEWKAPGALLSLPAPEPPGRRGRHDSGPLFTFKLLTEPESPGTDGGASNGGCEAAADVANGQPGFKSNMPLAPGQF

[14] = target: BDNF/NT-3 growth factors receptor (Homo sapiens) (UniProt Q16620); details: Compound concentration 1000.0 nM
BDNF/NT-3 growth factors receptor (Homo sapiens), sequence (Q16620 32-822 limits assumed): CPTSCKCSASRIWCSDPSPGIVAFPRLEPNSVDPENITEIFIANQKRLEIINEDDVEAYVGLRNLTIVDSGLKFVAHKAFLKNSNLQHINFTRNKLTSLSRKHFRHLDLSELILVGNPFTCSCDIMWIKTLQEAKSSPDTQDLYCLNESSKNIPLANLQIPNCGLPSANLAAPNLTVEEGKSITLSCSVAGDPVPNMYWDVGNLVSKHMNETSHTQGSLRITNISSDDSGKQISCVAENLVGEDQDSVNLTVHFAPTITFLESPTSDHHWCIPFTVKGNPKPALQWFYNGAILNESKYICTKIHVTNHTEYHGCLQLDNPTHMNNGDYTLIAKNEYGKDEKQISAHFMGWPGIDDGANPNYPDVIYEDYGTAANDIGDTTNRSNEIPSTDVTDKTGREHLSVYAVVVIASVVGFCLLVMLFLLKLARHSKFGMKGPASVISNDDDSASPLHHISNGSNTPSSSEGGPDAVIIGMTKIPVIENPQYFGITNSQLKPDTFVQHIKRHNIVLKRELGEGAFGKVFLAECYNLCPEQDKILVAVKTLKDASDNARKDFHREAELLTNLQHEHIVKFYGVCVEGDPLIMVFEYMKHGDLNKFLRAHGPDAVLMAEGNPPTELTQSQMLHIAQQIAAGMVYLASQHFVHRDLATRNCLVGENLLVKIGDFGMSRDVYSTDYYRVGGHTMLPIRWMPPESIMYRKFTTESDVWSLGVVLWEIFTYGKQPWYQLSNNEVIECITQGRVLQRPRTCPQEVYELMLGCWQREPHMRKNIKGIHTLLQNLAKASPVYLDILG

[15] = target: Calcium/calmodulin-dependent protein kinase type II subunit delta (Homo sapiens) (UniProt Q13557); details: Compound concentration 1000.0 nM
Calcium/calmodulin-dependent protein kinase type II subunit delta (Homo sapiens), sequence (Q13557 whole entry): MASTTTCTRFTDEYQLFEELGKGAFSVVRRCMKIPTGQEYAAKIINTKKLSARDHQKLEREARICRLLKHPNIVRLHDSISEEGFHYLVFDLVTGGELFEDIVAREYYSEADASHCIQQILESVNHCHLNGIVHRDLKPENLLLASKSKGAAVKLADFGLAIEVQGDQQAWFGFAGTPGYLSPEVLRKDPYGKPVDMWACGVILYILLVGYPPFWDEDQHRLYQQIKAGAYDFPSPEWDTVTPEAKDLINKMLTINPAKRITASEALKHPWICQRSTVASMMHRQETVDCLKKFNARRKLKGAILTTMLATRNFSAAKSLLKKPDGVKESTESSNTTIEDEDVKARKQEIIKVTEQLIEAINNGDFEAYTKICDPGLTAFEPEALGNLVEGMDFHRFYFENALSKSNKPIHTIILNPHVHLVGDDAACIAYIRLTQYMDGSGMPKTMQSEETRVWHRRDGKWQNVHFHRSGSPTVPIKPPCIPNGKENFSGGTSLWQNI

[16] = target: 5-hydroxytryptamine receptor 5A (Homo sapiens) (UniProt P47898); details: Compound concentration 10.0 uM
[17] = tested on: Mast/stem cell growth factor receptor Kit (Homo sapiens), P10721 [V559D]; details: Compound concentration 1000.0 nM
Mast/stem cell growth factor receptor Kit (Homo sapiens), P10721 [V559D], sequence (P10721 whole entry V559D): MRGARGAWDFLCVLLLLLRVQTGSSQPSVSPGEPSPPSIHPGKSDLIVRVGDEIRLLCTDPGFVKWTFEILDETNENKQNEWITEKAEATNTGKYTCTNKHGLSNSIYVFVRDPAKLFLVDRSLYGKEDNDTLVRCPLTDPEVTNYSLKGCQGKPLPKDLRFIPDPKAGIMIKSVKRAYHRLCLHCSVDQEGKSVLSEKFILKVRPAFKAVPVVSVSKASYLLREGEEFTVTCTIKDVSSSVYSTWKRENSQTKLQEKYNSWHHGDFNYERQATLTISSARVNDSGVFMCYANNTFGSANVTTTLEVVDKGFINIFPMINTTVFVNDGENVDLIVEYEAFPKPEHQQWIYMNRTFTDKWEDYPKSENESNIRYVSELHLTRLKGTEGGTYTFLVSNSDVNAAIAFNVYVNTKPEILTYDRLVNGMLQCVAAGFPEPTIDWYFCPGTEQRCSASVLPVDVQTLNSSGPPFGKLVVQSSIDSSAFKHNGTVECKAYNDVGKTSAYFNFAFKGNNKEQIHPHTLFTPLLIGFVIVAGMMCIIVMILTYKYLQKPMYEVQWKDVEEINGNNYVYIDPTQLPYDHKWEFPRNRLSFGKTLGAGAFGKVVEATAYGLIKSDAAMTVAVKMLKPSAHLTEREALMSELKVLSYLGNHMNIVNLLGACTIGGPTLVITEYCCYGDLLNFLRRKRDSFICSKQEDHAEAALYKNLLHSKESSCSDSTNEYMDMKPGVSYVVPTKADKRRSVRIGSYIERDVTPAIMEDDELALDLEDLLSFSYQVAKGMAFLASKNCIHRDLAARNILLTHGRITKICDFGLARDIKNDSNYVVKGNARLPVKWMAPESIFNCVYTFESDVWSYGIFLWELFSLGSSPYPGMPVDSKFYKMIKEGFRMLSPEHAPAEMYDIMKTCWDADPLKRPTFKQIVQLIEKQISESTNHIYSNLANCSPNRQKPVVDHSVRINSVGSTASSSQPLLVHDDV

[18] = tested on: Receptor-type tyrosine-protein kinase FLT3 (Homo sapiens), P36888 [K663Q]; details: Compound concentration 1000.0 nM
[19] = target: Calcium/calmodulin-dependent protein kinase type II subunit gamma (Homo sapiens) (UniProt Q13555); details: Compound concentration 1000.0 nM
Calcium/calmodulin-dependent protein kinase type II subunit gamma (Homo sapiens), sequence (Q13555 whole entry, the tested form may be a part): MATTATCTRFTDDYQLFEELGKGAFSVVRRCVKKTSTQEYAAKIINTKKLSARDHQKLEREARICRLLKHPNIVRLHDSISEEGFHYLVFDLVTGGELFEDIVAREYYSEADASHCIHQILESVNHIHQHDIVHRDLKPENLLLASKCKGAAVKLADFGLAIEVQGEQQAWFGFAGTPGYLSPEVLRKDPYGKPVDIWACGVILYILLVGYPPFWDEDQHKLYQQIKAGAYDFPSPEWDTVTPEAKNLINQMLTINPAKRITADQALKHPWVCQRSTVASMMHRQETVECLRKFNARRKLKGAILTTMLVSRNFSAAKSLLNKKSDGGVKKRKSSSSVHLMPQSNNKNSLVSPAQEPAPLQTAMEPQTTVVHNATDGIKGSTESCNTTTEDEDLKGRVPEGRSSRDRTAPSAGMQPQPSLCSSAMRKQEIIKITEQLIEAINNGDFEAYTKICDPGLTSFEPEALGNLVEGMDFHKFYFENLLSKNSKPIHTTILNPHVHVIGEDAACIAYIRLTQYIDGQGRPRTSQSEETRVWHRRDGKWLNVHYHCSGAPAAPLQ

[20] = target: Epithelial discoidin domain-containing receptor 1 (Homo sapiens) (UniProt Q08345); details: Compound concentration 1000.0 nM
[21] = target: Membrane-associated tyrosine- and threonine-specific cdc2-inhibitory kinase (Homo sapiens) (UniProt Q99640); details: Compound concentration 1000.0 nM
Membrane-associated tyrosine- and threonine-specific cdc2-inhibitory kinase (Homo sapiens), sequence (Q99640 whole entry): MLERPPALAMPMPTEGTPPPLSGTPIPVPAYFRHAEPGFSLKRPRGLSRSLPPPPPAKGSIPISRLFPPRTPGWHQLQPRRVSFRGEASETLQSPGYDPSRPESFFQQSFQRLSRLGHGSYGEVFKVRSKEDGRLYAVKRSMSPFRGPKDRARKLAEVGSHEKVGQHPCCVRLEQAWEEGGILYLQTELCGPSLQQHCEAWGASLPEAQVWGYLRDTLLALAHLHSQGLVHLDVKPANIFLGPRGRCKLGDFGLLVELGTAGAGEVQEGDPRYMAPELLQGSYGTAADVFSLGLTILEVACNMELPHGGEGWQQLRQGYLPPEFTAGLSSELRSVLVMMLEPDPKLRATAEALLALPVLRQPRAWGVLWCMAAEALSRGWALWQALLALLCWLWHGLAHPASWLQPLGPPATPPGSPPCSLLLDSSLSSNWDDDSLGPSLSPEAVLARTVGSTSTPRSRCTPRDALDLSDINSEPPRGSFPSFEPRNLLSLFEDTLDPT

[22] = target: Serine/threonine-protein kinase SIK1 (Homo sapiens) (UniProt P57059); details: Compound concentration 1000.0 nM
[23] = target: T3, 5-hydroxytryptamine receptor 3A (Homo sapiens) (UniProt P46098); assay: 5-HT3 (h) CEREP ligand profiling; details: filed as antagonist, Compound concentration 10.0 uM
T3 sequence (whole entry): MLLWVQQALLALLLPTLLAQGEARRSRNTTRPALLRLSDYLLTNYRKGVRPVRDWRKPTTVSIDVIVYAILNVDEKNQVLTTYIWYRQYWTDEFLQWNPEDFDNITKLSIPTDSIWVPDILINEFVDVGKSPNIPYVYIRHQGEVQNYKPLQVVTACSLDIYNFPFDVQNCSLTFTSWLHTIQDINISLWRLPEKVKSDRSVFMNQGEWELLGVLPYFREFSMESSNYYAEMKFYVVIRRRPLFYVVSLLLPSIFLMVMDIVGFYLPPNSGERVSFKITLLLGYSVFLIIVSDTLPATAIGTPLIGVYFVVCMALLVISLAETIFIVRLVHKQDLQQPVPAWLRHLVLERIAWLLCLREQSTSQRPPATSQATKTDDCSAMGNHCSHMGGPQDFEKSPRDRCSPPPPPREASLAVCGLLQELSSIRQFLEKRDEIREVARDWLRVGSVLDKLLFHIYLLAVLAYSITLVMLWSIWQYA

Myosin light chain kinase family member 4 (Homo sapiens), sequence (Q86YV6 whole entry): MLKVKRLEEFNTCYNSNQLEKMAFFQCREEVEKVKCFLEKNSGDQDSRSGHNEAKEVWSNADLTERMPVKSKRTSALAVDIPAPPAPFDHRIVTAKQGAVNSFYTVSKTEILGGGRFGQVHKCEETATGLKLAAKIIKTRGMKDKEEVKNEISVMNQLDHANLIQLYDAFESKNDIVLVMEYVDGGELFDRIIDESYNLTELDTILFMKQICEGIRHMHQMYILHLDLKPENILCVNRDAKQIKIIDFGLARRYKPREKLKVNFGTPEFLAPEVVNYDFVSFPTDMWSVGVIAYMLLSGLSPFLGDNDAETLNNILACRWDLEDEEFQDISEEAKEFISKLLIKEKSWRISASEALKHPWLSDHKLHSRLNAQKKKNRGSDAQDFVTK

CNC(=O)Nc1ccc2c(c1)CC[C@@]21OC(=O)N(CC(=O)N(Cc2ccc(F)cc2)[C@@H](C)C(F)(F)F)C1=O [A-485]
inactive: residual activity [1] 89% | residual activity [2] 100% | residual activity [3] 70% | inhibition [4] 28% | residual activity [5] 58% | inhibition [6] 2.39% | residual activity [7] 86% | residual activity [8] 95% | inhibition [9] 9.97% | residual activity [10] 86% | residual activity [11] 70% | inhibition [12] 18% | inhibition [13] 1.93% | residual activity [14] 95% | residual activity [15] 91% | inhibition [16] 5.99% | residual activity [17] 100% | residual activity [18] 100% | residual activity [19] 76% | residual activity [20] 100% | residual activity [21] 74% | residual activity [22] 98% | inhibition [23] 0%

CNC(=O)Nc1ccc2c(c1)[C@@]1(CC2)OC(=O)N(CC(=O)N(Cc2ccc(F)cc2)[C@@H](C)C(F)(F)F)C1=O [A-486]
inactive: residual activity [1] 81% | residual activity [2] 97% | residual activity [3] 100% | inhibition [4] 12% | residual activity [5] 69% | inhibition [6] -2.77% | residual activity [7] 93% | residual activity [8] 96% | inhibition [9] 0.29% | residual activity [10] 96% | residual activity [11] 90% | inhibition [12] 12% | inhibition [13] -1.33% | residual activity [14] 89% | residual activity [15] 100% | inhibition [16] 2.78% | residual activity [17] 100% | residual activity [18] 84% | residual activity [19] 98% | residual activity [20] 100% | residual activity [21] 92% | residual activity [22] 90% | inhibition [23] 4%
